Source: paper PMC8752738, “A propolis-derived small molecule ameliorates metabolic syndrome in obese mice by targeting the CREB/CRTC2 transcriptional complex” (Nature Communications, 2022)
Values joined by “and” are separate entries in the source; they are usually repeats but may differ in a detail not shown here. Equal entries are not always repeated.

Tested on: tissue mRNA levels
Test: Quantitative PCR of tissue gene expression in treated mice;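 as to mRNA levels Retn: daily intraperitoneal dosing for 5 weeks versus vehicle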;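 as to mRNA levels Srebf-1c: daily intraperitoneal dosing for 5 weeks versus vehicle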;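 as to mRNA levels Srebf-2: daily intraperitoneal dosing for 5 weeks versus vehicle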;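 as to mRNA levels Tnfaip2: daily intraperitoneal dosing for 5 weeks versus vehicle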
Type: in vivo, mouse
Set-up: key to mRNA levels Scap / mRNA levels Insig1 / mRNA levels Ldlr / mRNA levels Mttp / mRNA levels Atgl / mRNA levels Tnfaip2 / mRNA levels Rxra / mRNA levels Srebf1 / mRNA levels Ucp2: mRNA level normalized to ribosomal L32 mRNA (internal control)
Method: Total RNA from cells and tissues was extracted by Trizol (Invitrogen) and reverse-transcribed into cDNA using the prime script RT reagent kit with gDNA eraser (Takara). The mRNA levels were determined using the SYBR-green PCR kit (Takara) with ABIPRISM 7900HT Sequence detector (ABI) according to the manufacturer’s protocol. The quantitative qPCR primers used in this work are listed in Supplementary Table 1. Ribosomal L32 mRNA levels were used as an internal control.

[1] = Figure 6d, white fat (WF) tissue of DIO mice, individual animals
[2] = db/db mice, liver, individual mouse, relative to VEH
[3] = liver of DIO mice, individual animals, n=5, relative to VEH

CC(C)=CCc1cc(C=CC(=O)O)cc(CC=C(C)C)c1O [APC, 3,5-diprenyl-4-hydroxycinnamic acid]
mRNA levels Retn [1]: 0.123 and 0.143 and 0.2381 and 0.235 and 0.5597 and 0.5846
mRNA levels Scd1 [1]: 0.2084 and 0.3568 and 0.6736 and 0.7934 and 0.506 and 0.7156
mRNA levels Srebf-1c [1]: 0.5354 and 0.1144 and 0.4679 and 0.2361 and 0.4842 and 0.3947
mRNA levels Srebf-2 [1]: 0.5798 and 0.5629 and 0.8096 and 0.529 and 0.7852 and 0.6266
mRNA levels Tnfaip2 [1]: 1.35 and 1.386 and 0.7621 and 0.8823 and 0.8616 and 0.7122
Mean Diff. (Veh. vs. treated; head of the quantity not shown, section just before Figure 7h) (WT mice, Met 200mg/kg or APC-20): 0.5814
CREB targets in tissues: Brain-Creb, Mean of APC (brain, Creb mRNA, group mean): 1.036
CREB targets in tissues: Brain-Creb (brain, Creb mRNA, individual animals): 1.197 and 1.012 and 0.7996 and 1.136
CREB targets in tissues: Brain-Nr4a1, Mean of APC (brain, Nr4a1 mRNA, group mean): 1.211
CREB targets in tissues: Brain-Nr4a1 (brain, Nr4a1 mRNA, individual animals): 1.274 and 1.137 and 0.9545 and 1.476
G6pc mRNA levels in the liver of db/db, Mean of APC (db/db mice, liver, group mean): 0.7471
Pck1 mRNA levels in the liver of db/db, Mean of APC (db/db mice, liver, group mean): 0.6226
Pgc1a mRNA levels in the liver of db/db, Mean of APC (db/db mice, liver, group mean): 0.7977
Pgc1beta mRNA levels in the liver of db/db, Mean of APC (db/db mice, liver, group mean): 0.5441
G6pc mRNA levels in the liver of db/db [2]: 0.8066 and 0.775 and 0.6553 and 0.7287 and 0.77
Pck1 mRNA levels in the liver of db/db [2]: 0.6945 and 0.6263 and 0.76 and 0.3641 and 0.668
Pgc1a mRNA levels in the liver of db/db [2]: 0.6615 and 0.9739 and 0.731 and 0.852 and 0.77
Pgc1beta mRNA levels in the liver of db/db [2]: 0.4871 and 0.4573 and 0.6546 and 0.4823 and 0.6391
CREB targets in tissues: Intestine-Creb, Mean of APC (intestine, Creb mRNA, group mean): 0.8467
CREB targets in tissues: Intestine-Creb (intestine, Creb mRNA, individual animals): 1.179 and 0.6319 and 0.7341 and 0.8415
CREB targets in tissues: Intestine-Gcg, Mean of APC (intestine, Gcg mRNA, group mean): 1.011
CREB targets in tissues: Intestine-Gcg (intestine, Gcg mRNA, individual animals): 1.309 and 1.259 and 0.7551 and 0.7184
CREB targets in tissues: Intestine-Nr4a1, Mean of APC (intestine, Nr4a1 mRNA, group mean): 0.8751
CREB targets in tissues: Intestine-Nr4a1 (intestine, Nr4a1 mRNA, individual animals): 0.8692 and 0.9136 and 0.8672 and 0.8504
CREB targets in tissues: Kidney-Creb, Mean of APC (kidney, Creb mRNA, group mean): 1.013
CREB targets in tissues: Kidney-Creb (kidney, Creb mRNA, individual animals): 1.268 and 1.031 and 0.912 and 0.8402
CREB targets in tissues: Kidney-Nr4a1, Mean of APC (kidney, Nr4a1 mRNA, group mean): 1.291
CREB targets in tissues: Kidney-Nr4a1 (kidney, Nr4a1 mRNA, individual animals): 1.347 and 1.276 and 1.454 and 1.087
mRNA levels of nuclear receptor in the liver of DIO mice: Lxrα [3]: 0.586 and 0.8678 and 0.6768 and 0.6509 and 0.6469
mRNA levels of nuclear receptor in the liver of DIO mice: Pparα [3]: 0.9724 and 0.9732 and 1.109 and 1.163 and 1.051
mRNA levels of nuclear receptor in the liver of DIO mice: Pparγ [3]: 1.158 and 1.005 and 1.0158 and 1.1983 and 1.083
mRNA levels of nuclear receptor in the liver of DIO mice: Rxrα [3]: 0.9006 and 1.063 and 0.8578 and 0.9925 and 1.111
mRNA levels of nuclear receptor in the liver of DIO mice: Lxrα, group mean (Mean 1) (liver of DIO mice, mean of N=5): 0.6857
mRNA levels of nuclear receptor in the liver of DIO mice: Pparα, group mean (Mean 1) (liver of DIO mice, mean of N=5): 1.054
mRNA levels of nuclear receptor in the liver of DIO mice: Pparγ, group mean (Mean 1) (liver of DIO mice, mean of N=5): 1.092
mRNA levels of nuclear receptor in the liver of DIO mice: Rxrα, group mean (Mean 1) (liver of DIO mice, mean of N=5): 0.9849
CREB targets in tissues: Mus-Creb, Mean of APC (muscle, Creb mRNA, group mean): 1.048
CREB targets in tissues: Mus-Creb (muscle, Creb mRNA, individual animals): 1.0591 (2×) and 0.9897 and 1.082
CREB targets in tissues: Mus-Nr4a1, Mean of APC (muscle, Nr4a1 mRNA, group mean): 1.244
CREB targets in tissues: Mus-Nr4a1 (muscle, Nr4a1 mRNA, individual animals): 1.457 (2×) and 0.6913 and 1.369
CREB targets in tissues: Mus-Pdk1, Mean of APC (muscle, Pdk1 mRNA, group mean): 0.9489
CREB targets in tissues: Mus-Pdk1 (muscle, Pdk1 mRNA, individual animals): 0.9576 (2×) and 0.8606 and 1.02
liver mRNA levels of Srebp-1c and 2 in CRTC2 knockout mice (oral 20 mg/kg daily, 3 weeks): did not further decrease
CREB targets in tissues: Pancreac-C2cd4a, Mean of APC (pancreas, C2cd4a mRNA, group mean): 0.9353
CREB targets in tissues: Pancreac-C2cd4a (pancreas, C2cd4a mRNA, individual animals): 1.193 and 0.8753 and 0.8055 and 0.8678
CREB targets in tissues: Pancreac-Creb, Mean of APC (pancreas, Creb mRNA, group mean): 1.238
CREB targets in tissues: Pancreac-Creb (pancreas, Creb mRNA, individual animals): 1.233 and 1.182 and 1.267 and 1.269
CREB targets in tissues: Pancreac-Nr4a1, Mean of APC (pancreas, Nr4a1 mRNA, group mean): 1.238
CREB targets in tissues: Pancreac-Nr4a1 (pancreas, Nr4a1 mRNA, individual animals): 0.9381 and 1.521 and 1.263 and 1.23
CREB targets in tissues: Spleen-Creb, Mean of APC (spleen, Creb mRNA, group mean): 1.07
CREB targets in tissues: Spleen-Creb (spleen, Creb mRNA, individual animals): 1.294 and 1.069 and 0.8334 and 1.085
CREB targets in tissues: Spleen-Nr4a1, Mean of APC (spleen, Nr4a1 mRNA, group mean): 1.115
CREB targets in tissues: Spleen-Nr4a1 (spleen, Nr4a1 mRNA, individual animals): 1.516 and 1.042 and 0.6673 and 1.233
